# Legend:
# AML12 Cell Line = assay: Transfection of AML12 Cell Line with FLuc mRNA LNPs (ONE-Glo EX luciferase signal); assay type: cell-based; conditions: 200 ng Fluc mRNA-LNP, 24 hours; Table 4
# Method: (§1) mRNA encapsulated lipid nanoparticles (mRNA LNPs) were formulated using microfluidic mixing with a PNI Ignite instrument. Briefly, lipids (ionizable: structural: helper: PEG) were dissolved in ethanol and mixed with and aqueous solution of mRNA. These mRNA-loaded dispersions were then neutralized via a buffer exchange with a pre-determined buffer overnight. Afterwards, formed LNPs were concentrated with Amicon filter centrifugation, filtered, concentration of mRNA determined through a ribogreen assay, and frozen at −80° C. until use.
# (§2) Cell lines were grown to confluence in T75 flasks using complete media of DMEM-F12 for AML12 and DMEM for both B16F10 and MC38.K. Cells were plated in a white 96 flat-well plate (AML12=20,000 cells/well, B16F10 and MC38.K=5,000 cells/well) with their respected media. Lipid nanoparticles were first diluted to 50 μg/ml using Opti-MEM and pre-incubated with mouse serum for 30 minutes to give an LNP concentration of 8 μg/ml. Cell media was replaced with Opti-MEM and LNPs were added to cells (200 ng of mRNA-LNP), placed back in the incubator, and allowed to transfect for 24 hours. Afterwards, 100 μl of Promega's ONE-Glo™ EX Luciferase Assay System or Promega's CellTiter-Glo® Luminescent Cell Viability Assay was added and mixed in their respective wells, followed by recording luminescence signals on a Thermo Scientific Varioskan LUX multimode microplate reader. The results are shown in FIG. 1, FIG. 2, FIG. 3, FIG. 4, FIG. 5, FIG. 6, FIG. 10, FIG. 11, and FIG. 21.
# Liver = assay: Ex-vivo luminescence signal from liver after IV Fluc mRNA LNPs in CD1 mice (IVIS); conditions: tail vein 1.0 mg/kg Day 0 and Day 2, imaging 18 hours after second dose, Table 4
# B16F10 Cell Line = assay: Transfection of B16F10 Cell Line with FLuc mRNA LNPs (ONE-Glo EX luciferase signal); assay type: cell-based; conditions: 200 ng Fluc mRNA-LNP, 24 hours; Table 4
# Method: as §1, §2
# MC38.K Cell Line = assay: Transfection of MC38.K Cell Line with FLuc mRNA LNPs (ONE-Glo EX luciferase signal); assay type: cell-based; conditions: 200 ng Fluc mRNA-LNP, 24 hours; Table 4
# Method: as §1, §2
SMILES,Total Luciferin Signal (RLU) In Vitro - AML12 (AML12 Cell Line) [RLU],Total Liver Tissue Luciferin Signal (Photons/s) Ex-vivo - CD1 (Liver) [Photons/s],Total Luciferin Signal (RLU) In Vitro - B16F10 (B16F10 Cell Line) [RLU],Total Luciferin Signal (RLU) In Vitro - MC38.K (MC38.K Cell Line) [RLU]
CCCCCCCCC(CCCCCCCC)C(=O)OCCCCCCCN(CCO)CCCCCCCC(=O)OCCCCCCCCC(C)C [Compound 4],1.72E+06,1.06E+09,2.16E+06,3.54E+06
CCCCCCCCC(CCCCCCCC)C(=O)OCCCCCCCN(CCO)CCCCCC(=O)OCCCCCCCCC(C)C [Compound 6],8.42E+05,2.10E+09,5.77E+05,9.66E+05
CCCCCCCCC(CCCCCCCC)C(=O)OCCCCCCCN(CCCCCC(=O)OCCCCCCCCC(C)C)CCOC(=O)CCCN(C)CCO [Compound 8],1.43E+05,2.13E+08,9.69E+05,3.40E+06
CCCCCCCCC(CCCCCCCC)C(=O)OCCCCCCCN(CCCCCC(=O)OCCCCCCCCC(C)C)CCOC(=O)CCCN(C)C [Compound 9],6.57E+05,4.41E+07,3.27E+06,1.23E+06
CCCCCCCCC(CCCCCCCCF)OC(=O)CCCCCCCN(CCO)CCCCCCCC(=O)OCCCCCCCCC(C)C (stereo not shown) [Compound 10],7.51E+05,8.34E+09,4.57E+05,6.38E+05
CCCCCCCCC(CCCCCCCC)OC(=O)CCCCCCCN(CCO)CCCCCCCOC(=O)CCCCCCCCC(C)C [Compound 11],4.29E+06,4.88E+09,7.92E+06,7.64E+06
CCCCCCCCC(CCCCCCCC)OC(=O)CCCCCCCN(CCCCCCCOC(=O)CCCCCCCCC(C)C)CCOC(=O)CCCN(C)C [Compound 12],7.43E+05,4.15E+07,2.79E+06,4.07E+06
CCCCCCCCC(CCCCCCCC)C(=O)OCCCCCCCN(CCO)CCCCCCCOC(=O)CCCCCCCCC(C)C [Compound 14],2.94E+06,1.93E+09,5.12E+06,4.71E+06
CCCCCCCCC(CCCCCCCC)OC(=O)CCCCCN(CCO)CCCCCC(=O)OCCCCCCCCCCC(C)C [Compound 16],1.67E+06,5.11E+09,7.67E+06,2.39E+06
CCCCCCCCCCCOC(=O)CCCCCN(CCCCCCCC(=O)OC(CCCCCCCC)CCCCCC(C)C)CCOC(=O)CCCN(C)C (stereo not shown) [Compound 19],6.91E+05,1.28E+08,1.27E+06,1.90E+06
CCCCCCCCC(CCCCCCCC)C(=O)OCCCCCCCN(CCO)CCCCCCCOC(=O)CCCCCCCC=C(C)C [Compound 20],7.65E+05,7.61E+09,4.65E+05,7.88E+05
CCCCCCCCCCCOC(=O)CCCCCN(CCO)CCCCCCCC(=O)OC(CCCCCCCC)CCCCCCCF (stereo not shown) [Compound 24],5.98E+05,1.04E+10,3.37E+05,7.60E+05
CCCCCCCCCOC(=O)CCCCCN(CCO)CCCCCCCC(=O)OC(CCCCCCCC)CCCCCCCF (stereo not shown) [Compound 25],1.09E+05,2.05E+09,4.43E+05,9.18E+05
CCCCCCCCC(CCCCCCCF)OC(=O)CCCCCCCN(CCO)CCCCCC(=O)OCCCCCCC(C)C (stereo not shown) [Compound 26],1.95E+05,5.54E+09,1.73E+05,2.33E+05
CCCCCCCCCC(=O)OCCCCCCCN(CCO)CCCCCCCOC(=O)C(CCCCCCCC)CCCCCCCF (stereo not shown) [Compound 27],3.02E+05,5.60E+09,6.19E+04,2.37E+05
CCCCCCCCC(CCCCCCCF)OC(=O)CCCCCCCN(CCO)CCCCCC(=O)OC(CCCCCCCC)CCCCCCCC (stereo not shown) [Compound 29],8.52E+04,7.57E+09,8.63E+05,2.97E+05
CCCCCCCCCOC(=O)CCCCCCCN(CCCO)CCCCCCCC(=O)OC(CCCCCCCC)CCCCCCCCF (stereo not shown) [Compound 30],8.06E+05,1.53E+10,1.16E+05,4.65E+05
CCCCCCCCCC(=O)OCCCCCCCN(CCO)CCCCCCCC(=O)OC(CCCCCCCC)CCCCCCCCF (stereo not shown) [Compound 32],1.53E+05,3.13E+09,2.09E+05,4.43E+05
CCCCCCCCCCCOC(=O)CCCCCN(CCO)CCCCCCCC(=O)OC(CCCCCCCC)CCCCCCCCF (stereo not shown) [Compound 33],1.38E+05,2.93E+09,4.80E+05,1.07E+06
CCCCCCCCCOC(=O)CCCCCN(CCO)CCCCCCCC(=O)OC(CCCCCCCC)CCCCCCCCF (stereo not shown) [Compound 34],1.56E+05,1.89E+09,238754.8,4.19E+05
CCCCCCCCC(CCCCCCCCF)OC(=O)CCCCCCCN(CCO)CCCCCC(=O)OC(CCCCCCCC)CCCCCCCC (stereo not shown) [Compound 35],1.57E+05,1.51E+10,4.43E+05,4.52E+05
CCCCCCCCCOC(=O)CCCCCCCN(CCO)CCCCCCC(C)C(=O)OC(CCCCCCCC)CCCCCCCC (stereo not shown) [Compound 36],2.18E+05,6.41E+08,2.85E+05,2.32E+05
